ChEMBL document CHEMBL1201862, “PubChem BioAssay data set” (2004)
The source made the active and inactive calls.

Assays:
[1] = biological target: DNA (cytosine-5)-methyltransferase 1 (Homo sapiens, UniProt P26358); assay: inhibition of DNA methylation by DNMT1 – biochemical, fluorescent molecular beacon, confirmation (AID 602386); assay type: functional
[2] = Luminescence Cell-Based Dose Retest to Confirm Inhibitors of Cancer Stem Cells. [Related pubchem assays (depositor defined):AID2717, AID2721]; assay type: functional; conditions: Homo sapiens
[3] = viability of uninfected HEp-2 cells – cell-based, HTS, cytotoxicity control for RSV inhibitor project, dose response (AID 2410); assay type: functional; conditions: human respiratory syncytial virus
[4] = biological target: Induced myeloid leukemia cell differentiation protein Mcl-1 (Homo sapiens, UniProt Q07820); assay type: functional
Chain of Induced myeloid leukemia cell differentiation protein Mcl-1 (Q07820 whole entry, the tested form may be a part): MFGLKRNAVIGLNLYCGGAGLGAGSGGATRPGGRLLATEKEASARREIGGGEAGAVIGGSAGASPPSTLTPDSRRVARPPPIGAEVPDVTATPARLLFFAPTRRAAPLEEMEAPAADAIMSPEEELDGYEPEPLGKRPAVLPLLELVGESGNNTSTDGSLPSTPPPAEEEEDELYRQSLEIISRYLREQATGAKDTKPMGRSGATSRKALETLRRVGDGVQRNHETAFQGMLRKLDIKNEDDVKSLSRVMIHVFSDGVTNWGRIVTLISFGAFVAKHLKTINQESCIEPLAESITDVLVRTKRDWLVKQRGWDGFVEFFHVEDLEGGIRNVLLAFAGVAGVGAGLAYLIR

[5] = CCR5-tropic HIV-1 fusion blockers – cell-based, CCR5-tropic Env, dose response (AID 2279); assay type: functional
Protein Wnt-3a = Protein Wnt-3a (Mus musculus, UniProt P27467); assay: antagonism of Wnt3a pathway luciferase reporter – Wnt-LIGHT cells, luminescence, selectivity assay for Gli-SUFU antagonist project, dose response (AID 651570); assay type: functional; conditions: read-out: IC50_Mean;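 also: Wnt-LIGHT reporter cells stimulated with conditioned medium from Wnt3a-producing cells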
Chain of Protein Wnt-3a (P27467 whole entry): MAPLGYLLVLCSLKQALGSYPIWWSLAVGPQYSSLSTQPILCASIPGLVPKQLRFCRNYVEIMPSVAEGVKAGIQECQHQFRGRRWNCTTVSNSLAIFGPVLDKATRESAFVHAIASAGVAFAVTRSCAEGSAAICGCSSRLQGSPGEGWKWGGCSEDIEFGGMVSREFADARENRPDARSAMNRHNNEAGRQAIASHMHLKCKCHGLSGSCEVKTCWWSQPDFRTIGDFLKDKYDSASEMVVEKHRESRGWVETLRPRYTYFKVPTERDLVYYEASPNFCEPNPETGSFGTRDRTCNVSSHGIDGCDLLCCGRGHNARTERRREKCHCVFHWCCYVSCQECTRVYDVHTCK

[6] = NIH3T3 cell viability loss – ATP luminescence, mouse fibroblasts, counter-screen, dose response (AID 2010); assay type: functional, cell-based;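 also: cells exposed to compound for about 90 hours before reading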
[7] = Trypanosoma cruzi growth suppression in host cells – NIH3T3 host cells, beta-gal luminescence, confirmation (AID 2044); assay type: functional, cell-based;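 also: intracellular parasites grown in NIH/3T3 mouse fibroblasts as host cells; luminescent beta-galactosidase reporter signal from transgenic T. cruzi replicating inside host cells; inhibitors lower the luminescence signal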
[8] = biological target: T1, RNA-binding protein pos-1 (Caenorhabditis elegans, UniProt G5EF15); assay: disruptors of C. elegans POS-1 RNA interaction – biochemical, fluorescence polarization, dose response (AID 1964);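 also: purified POS-1 fused to maltose binding protein made in E. coli; potency of compounds blocking POS-1 binding to fluorescent RNA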
T1 sequence (G5EF15 whole entry): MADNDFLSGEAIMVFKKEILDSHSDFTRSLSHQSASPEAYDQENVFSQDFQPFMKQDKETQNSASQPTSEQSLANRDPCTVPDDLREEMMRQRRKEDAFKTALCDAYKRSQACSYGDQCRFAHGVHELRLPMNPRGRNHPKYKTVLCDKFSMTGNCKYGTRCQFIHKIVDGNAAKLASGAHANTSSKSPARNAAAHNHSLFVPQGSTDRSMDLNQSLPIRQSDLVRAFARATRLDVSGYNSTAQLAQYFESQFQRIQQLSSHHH

[9] = biological target: T2, Zinc finger protein mex-5 (Caenorhabditis elegans, UniProt Q9XUB2); assay: potency of MEX-5 RNA-binding blockers – biochemical, C. elegans, fluorescence polarization, dose response (AID 1960)
T2 sequence (Q9XUB2 whole entry): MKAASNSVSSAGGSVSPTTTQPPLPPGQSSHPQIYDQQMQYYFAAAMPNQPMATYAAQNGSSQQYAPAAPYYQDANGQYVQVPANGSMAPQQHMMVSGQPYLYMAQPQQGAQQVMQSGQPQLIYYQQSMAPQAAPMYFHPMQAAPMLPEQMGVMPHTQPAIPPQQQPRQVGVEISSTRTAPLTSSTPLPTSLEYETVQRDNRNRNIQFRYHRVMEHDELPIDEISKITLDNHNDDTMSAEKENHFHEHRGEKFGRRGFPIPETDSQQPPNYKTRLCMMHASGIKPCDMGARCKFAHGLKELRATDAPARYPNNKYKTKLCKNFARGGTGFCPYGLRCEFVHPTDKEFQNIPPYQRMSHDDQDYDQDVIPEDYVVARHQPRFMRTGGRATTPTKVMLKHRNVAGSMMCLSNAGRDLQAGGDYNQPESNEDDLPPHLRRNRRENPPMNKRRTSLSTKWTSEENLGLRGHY

[10] = biological target: T3, Carboxy-terminal domain RNA polymerase II polypeptide A small phosphatase 1 (Homo sapiens, UniProt Q9GZU7); assay: CTDSP1 inhibitors, concentration-response, biochemical, absorbance readout, ultra-high-throughput screen actives (AID 540297); assay type: functional
T3 sequence (Q9GZU7 whole entry): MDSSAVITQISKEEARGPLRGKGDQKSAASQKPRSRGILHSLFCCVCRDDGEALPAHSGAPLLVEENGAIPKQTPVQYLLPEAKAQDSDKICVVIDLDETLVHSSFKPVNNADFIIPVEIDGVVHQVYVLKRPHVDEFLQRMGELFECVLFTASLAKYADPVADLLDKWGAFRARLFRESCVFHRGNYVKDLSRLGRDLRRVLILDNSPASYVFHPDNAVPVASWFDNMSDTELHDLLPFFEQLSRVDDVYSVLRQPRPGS

[11] = biological target: T4, Histone-lysine N-methyltransferase NSD2 (Homo sapiens, UniProt O96028); assay type: biochemical
T4 sequence (O96028 whole entry): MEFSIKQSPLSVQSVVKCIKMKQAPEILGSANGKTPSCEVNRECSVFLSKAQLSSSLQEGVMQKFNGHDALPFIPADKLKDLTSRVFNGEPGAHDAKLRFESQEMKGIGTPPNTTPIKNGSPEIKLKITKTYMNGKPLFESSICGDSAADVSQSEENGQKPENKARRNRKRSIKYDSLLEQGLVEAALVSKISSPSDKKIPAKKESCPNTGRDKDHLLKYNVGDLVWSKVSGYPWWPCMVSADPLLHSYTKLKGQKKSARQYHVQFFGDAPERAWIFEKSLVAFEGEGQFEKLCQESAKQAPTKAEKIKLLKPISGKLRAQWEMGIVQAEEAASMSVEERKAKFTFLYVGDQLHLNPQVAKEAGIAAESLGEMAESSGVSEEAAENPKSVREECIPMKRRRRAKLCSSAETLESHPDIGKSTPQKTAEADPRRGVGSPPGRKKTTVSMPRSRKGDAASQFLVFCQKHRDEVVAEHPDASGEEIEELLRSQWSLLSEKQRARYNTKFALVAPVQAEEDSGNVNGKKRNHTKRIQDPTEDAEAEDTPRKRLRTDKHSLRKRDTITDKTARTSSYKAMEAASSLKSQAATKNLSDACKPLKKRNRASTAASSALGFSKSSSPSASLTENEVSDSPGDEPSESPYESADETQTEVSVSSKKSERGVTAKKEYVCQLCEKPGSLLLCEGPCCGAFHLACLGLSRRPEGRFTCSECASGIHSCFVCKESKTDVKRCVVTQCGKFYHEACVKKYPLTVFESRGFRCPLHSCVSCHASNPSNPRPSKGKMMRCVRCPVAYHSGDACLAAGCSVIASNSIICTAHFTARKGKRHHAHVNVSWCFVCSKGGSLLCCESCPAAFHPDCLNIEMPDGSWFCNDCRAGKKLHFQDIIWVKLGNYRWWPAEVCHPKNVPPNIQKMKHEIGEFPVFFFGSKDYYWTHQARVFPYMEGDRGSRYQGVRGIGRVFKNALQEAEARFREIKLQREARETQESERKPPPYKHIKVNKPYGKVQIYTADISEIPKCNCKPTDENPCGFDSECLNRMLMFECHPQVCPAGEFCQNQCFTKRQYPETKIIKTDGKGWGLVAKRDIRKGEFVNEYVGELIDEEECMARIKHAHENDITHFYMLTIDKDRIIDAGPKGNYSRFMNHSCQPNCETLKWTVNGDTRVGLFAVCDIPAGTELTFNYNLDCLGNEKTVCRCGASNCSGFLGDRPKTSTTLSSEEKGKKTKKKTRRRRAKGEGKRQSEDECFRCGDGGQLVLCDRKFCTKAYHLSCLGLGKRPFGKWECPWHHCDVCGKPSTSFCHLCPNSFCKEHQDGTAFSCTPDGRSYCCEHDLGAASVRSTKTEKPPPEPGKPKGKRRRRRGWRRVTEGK

[12] = biological target: Photoreceptor-specific nuclear receptor (Homo sapiens, UniProt Q9Y5X4); assay type: functional, cell-based;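 also: CHO-S cells with Gal4-NCOR and VP16-NR2E3 two-hybrid luciferase reporter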
Chain of Photoreceptor-specific nuclear receptor (Q9Y5X4 whole entry, the tested form may be a part): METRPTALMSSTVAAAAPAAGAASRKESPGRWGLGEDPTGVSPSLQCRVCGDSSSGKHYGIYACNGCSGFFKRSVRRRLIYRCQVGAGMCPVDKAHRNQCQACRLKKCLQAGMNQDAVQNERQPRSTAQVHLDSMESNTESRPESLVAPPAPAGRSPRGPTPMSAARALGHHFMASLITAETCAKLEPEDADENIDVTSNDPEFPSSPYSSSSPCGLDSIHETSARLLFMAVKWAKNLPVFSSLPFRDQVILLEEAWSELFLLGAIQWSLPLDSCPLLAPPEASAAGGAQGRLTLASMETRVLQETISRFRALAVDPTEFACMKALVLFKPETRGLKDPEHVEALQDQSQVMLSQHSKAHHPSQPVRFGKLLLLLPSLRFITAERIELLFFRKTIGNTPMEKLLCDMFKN

[13] = HEK-293T viability loss after treatment – luminescence, T-cell screen hits, cytotoxicity control for TCR NF-kB inhibitor project, dose response (AID 489026); assay type: functional, cell-based;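 also: cells exposed to compound about 14 hours before the viability readout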
[14] = biological target: Hepatocyte nuclear factor 4-alpha (Homo sapiens, UniProt P41235); assay type: functional, cell-based;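 also: biochemical luminescence-based dose-response counterscreen measuring inhibition of HNF4 dimerization, run alongside a screen for blockers of ABHD5–perilipin-5 interaction; split luciferase complementation of HNF4 fusion proteins in cell lysate measuring dimerization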
Chain of Hepatocyte nuclear factor 4-alpha (P41235 whole entry, the tested form may be a part): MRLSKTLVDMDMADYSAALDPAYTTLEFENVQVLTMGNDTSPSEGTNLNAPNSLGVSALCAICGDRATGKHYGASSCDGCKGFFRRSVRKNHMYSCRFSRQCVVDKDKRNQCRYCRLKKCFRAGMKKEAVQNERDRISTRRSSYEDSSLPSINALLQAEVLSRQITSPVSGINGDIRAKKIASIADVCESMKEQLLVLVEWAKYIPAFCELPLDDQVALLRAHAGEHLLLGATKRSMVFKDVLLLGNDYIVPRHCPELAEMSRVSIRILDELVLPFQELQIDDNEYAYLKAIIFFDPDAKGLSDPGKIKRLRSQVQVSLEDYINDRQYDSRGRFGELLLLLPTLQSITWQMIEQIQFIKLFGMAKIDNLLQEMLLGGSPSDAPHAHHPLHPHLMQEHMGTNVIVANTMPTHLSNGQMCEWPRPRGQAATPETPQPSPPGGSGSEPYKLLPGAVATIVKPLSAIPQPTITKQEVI

[15] = NIH-3T3 fibroblast cytotoxicity, dose response, cytotoxicity control, cell-based, fluorescence, Alamar Blue, secondary assay (AID 2327); assay type: functional;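 also: NIH-3T3 mouse fibroblasts cultured with fluconazole at 8 µg/mL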
[16] = fluconazole-exposed Candida albicans growth modulators – fluorescence, retest, confirmation (AID 2467); assay type: functional, cell-based
[17] = general mammalian cell viability loss – inhibitor set, cherry-pick, set 2, cytotoxicity control for miR-122 modulator project, dose response (AID 720697); assay type: functional, cell-based
[18] = activation of miR-122 Renilla sensor silencing – cell-based, Huh7 psiCHECK-miR122, Renilla luciferase, cherry-picked, dose response (AID 651956); assay type: functional;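 also: huh7 hepatoma cells stably carrying a psiCHECK-2 miR-122 sensor plasmid; renilla luciferase signal reporting endogenous miR-122 activity after 48 h compound exposure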
[19] = biological target: ADP-ribosylation factor GTPase-activating protein 1 (Rattus norvegicus, UniProt Q62848); assay: Fluorescence polarization-based biochemical high throughput dose response screening assay to identify inhibitors of ADP-ribosylation factor GTPase activating protein 1 (ARFGAP1).; assay type: functional
Chain of ADP-ribosylation factor GTPase-activating protein 1 (Q62848 whole entry): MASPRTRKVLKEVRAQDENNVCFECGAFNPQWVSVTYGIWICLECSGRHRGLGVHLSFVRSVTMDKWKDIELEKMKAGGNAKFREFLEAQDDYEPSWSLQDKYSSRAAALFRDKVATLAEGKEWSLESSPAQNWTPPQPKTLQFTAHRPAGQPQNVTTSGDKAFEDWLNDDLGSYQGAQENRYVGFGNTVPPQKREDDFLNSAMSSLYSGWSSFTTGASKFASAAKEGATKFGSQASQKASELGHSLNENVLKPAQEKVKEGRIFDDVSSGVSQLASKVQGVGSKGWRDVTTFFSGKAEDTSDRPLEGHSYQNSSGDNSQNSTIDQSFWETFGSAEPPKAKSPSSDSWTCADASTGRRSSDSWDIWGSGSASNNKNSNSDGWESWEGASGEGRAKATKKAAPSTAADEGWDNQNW

[20] = biological target: T5, Mitochondrial peptide methionine sulfoxide reductase (Bos taurus, UniProt P54149); assay type: functional;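 also: absorbance read-out, biochemical high-throughput dose-response screen for MsrA inhibitors, confirmatory; recombinant bovine MsrA coupled to E. coli TrxB with NADPH and selenocystamine; potency is for inhibitors of MsrA activity on DMSO substrate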
T5 sequence (P54149 whole entry): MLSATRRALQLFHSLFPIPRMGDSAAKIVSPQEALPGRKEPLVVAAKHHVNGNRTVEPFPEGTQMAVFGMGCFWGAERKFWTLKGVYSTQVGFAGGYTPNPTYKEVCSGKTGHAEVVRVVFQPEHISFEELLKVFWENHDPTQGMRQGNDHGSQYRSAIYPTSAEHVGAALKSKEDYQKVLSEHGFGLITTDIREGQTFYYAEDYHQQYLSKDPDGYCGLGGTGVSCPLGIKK

[21] = biological target: T6, High affinity choline transporter 1 (Homo sapiens, UniProt Q9GZV3); assay: human choline transporter blockers, potency – cell-based, 10-point CRC, membrane potential dye, dose response (AID 588401); assay type: functional;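 also: membrane potential dye fluorescence of choline-evoked depolarization via CHT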
T6 sequence (Q9GZV3 whole entry): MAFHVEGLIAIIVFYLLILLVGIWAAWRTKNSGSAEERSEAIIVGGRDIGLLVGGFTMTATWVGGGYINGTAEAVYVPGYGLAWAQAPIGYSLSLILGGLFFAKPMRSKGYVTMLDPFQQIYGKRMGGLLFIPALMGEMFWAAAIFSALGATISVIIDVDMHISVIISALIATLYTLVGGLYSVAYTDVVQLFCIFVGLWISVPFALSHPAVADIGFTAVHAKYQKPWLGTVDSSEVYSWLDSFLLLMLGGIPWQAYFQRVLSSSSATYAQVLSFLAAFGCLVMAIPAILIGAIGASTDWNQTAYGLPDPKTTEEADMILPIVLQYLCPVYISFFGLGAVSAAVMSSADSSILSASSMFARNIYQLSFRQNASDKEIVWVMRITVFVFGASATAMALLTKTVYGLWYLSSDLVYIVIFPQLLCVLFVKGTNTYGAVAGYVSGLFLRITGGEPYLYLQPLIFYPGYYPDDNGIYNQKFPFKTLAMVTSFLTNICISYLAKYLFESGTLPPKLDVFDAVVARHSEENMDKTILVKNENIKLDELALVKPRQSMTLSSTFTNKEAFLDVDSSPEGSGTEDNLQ

[22] = biological target: T6, High affinity choline transporter 1; assay: human choline transporter blockers, potency – cell-based, 5-point CRC, membrane potential dye, dose response (AID 504840); assay type: functional
[23] = biological target: T7, Sentrin-specific protease 8 (Homo sapiens, UniProt Q96LD8); assay type: functional
T7 sequence (Q96LD8 whole entry): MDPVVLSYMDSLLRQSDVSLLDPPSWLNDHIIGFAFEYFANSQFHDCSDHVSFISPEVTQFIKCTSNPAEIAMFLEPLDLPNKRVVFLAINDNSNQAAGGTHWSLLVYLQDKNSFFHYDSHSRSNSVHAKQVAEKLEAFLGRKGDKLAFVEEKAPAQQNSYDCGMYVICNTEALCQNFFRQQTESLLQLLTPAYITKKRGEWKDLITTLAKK

[24] = biological target: T7, Sentrin-specific protease 8; assay type: functional; remark: listed apart in the source

Chain of DNA (cytosine-5)-methyltransferase 1 (P26358 whole entry): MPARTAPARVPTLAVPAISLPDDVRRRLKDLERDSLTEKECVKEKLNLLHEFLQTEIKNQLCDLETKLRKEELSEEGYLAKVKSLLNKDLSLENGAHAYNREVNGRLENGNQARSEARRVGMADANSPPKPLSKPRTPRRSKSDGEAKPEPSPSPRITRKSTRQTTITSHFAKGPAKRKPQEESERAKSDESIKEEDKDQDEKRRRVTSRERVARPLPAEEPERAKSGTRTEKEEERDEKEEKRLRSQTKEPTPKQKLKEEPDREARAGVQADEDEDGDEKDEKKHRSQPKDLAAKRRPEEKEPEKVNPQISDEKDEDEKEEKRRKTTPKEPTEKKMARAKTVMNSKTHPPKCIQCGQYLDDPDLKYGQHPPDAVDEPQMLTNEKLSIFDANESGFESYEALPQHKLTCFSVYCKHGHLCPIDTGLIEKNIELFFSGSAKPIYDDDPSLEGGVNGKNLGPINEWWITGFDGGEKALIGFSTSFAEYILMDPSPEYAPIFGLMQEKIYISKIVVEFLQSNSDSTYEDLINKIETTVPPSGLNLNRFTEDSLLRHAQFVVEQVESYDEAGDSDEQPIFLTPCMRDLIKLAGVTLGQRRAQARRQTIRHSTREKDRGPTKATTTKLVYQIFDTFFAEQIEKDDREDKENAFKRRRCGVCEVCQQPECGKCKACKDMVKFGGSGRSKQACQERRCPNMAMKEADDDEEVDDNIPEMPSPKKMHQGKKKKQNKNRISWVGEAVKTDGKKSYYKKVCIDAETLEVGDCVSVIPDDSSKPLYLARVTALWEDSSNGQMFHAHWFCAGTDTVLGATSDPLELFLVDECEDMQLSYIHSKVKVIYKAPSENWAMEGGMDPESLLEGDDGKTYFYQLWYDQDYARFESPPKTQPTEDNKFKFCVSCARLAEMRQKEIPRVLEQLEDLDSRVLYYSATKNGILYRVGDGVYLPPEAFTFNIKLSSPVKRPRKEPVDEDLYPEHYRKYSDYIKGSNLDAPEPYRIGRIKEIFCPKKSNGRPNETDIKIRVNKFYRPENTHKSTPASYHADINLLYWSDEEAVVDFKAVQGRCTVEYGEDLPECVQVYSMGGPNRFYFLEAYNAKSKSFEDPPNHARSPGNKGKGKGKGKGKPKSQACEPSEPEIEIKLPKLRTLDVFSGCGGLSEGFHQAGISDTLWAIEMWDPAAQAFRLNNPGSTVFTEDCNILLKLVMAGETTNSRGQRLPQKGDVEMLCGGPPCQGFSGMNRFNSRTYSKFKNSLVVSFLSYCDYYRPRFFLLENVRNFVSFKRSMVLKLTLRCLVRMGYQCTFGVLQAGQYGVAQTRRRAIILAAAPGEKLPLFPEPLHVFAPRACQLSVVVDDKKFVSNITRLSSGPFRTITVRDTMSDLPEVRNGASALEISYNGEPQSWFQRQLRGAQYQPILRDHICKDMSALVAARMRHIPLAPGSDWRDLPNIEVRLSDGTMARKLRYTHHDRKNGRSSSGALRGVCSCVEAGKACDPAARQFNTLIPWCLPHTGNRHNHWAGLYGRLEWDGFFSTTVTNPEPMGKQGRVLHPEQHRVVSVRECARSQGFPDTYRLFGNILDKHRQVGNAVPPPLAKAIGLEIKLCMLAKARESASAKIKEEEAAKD

In the case of O=C(O)CCCCCN1C(=O)/C(=C\c2cn(-c3ccccc3)nc2-c2cccs2)SC1=S, the IC50 [1] is reported as 6.97 µM (active), the AC50 [2] is reported as 3.54 µM (active) and the CC50 [3] is reported as 12 µM (active). The IC50 [4] was 2.31 µM (active) and the IC50 [5] was 37.4 µM (active).

For COc1ccccc1CCNC(=O)c1cc(-c2ccncc2)nc2ccc(Br)cc12, the IC50 (Protein Wnt-3a) was 10.9 µM (active), the EC50 [6] was > 60 µM (not active) and the EC50 [7] was 874 nM (active).

With CCOc1cccc(N2C(=O)/C(=C/c3ccco3)C(=O)NC2=S)c1 the EC50 [8] was > 300 µM (not active), the IC50 [1] was 4.24 µM (active) and the EC50 [9] was > 300 µM (not active). For the same compound, the IC50 [10] was 1.6 µM (active) and the AC50 [11] was 1.04 µM (active).

In the case of COc1cc2nc(CN3CC=C(c4ccccc4)CC3)nc(O)c2cc1OC, the IC50 [12] is reported as 65.5 nM (active), the IC50 [13] is reported as > 80 µM (inactive) and the AC50 [2] is reported as 0.609 µM (active).

In the case of O=C(Nc1ccc2c(c1)OCCO2)C(c1ccnc2ccccc12)n1c(=O)c(-c2ccco2)nc2ccccc21 (stereo not drawn), the IC50 [14] is reported as 18.9 µM (inactive).

For Cc1c(CCOC(=O)C23CC4CC(CC(C)(C4)C2)C3)sc[n+]1Cc1ccccc1, the IC50 (Protein Wnt-3a) was 32 µM (inactive), the EC50 [15] was > 150 µM (inactive) and the EC50 [16] was 2.08 µM (active).

With Cc1cc(C(=O)Nc2ccc3c(c2)C(=O)N(C)[C@@H]2CC[C@H](CC(=O)N[C@@H](C)c4ccccc4)O[C@H]2CO3)no1 the AC50 [17] was 1.12 µM (active) and the AC50 [18] was 57.6 µM (active).

In the case of COc1ccc(-n2nc3c(N4CCC(C(=O)NCc5ccccc5)CC4)nnc(C)c3c2C)cc1, the IC50 [19] is reported as 40.6 µM (inactive).

With COc1ccc(/C=N/n2c(S)nnc2C2CCCCC2)c(OC)c1 the IC50 [20] was 155 µM (inactive).

In the case of N=C1CCCN1CC(=O)c1ccc(Br)cc1, the IC50 [21] is reported as 1.06 µM (active) and the IC50 [22] is reported as 6.07 µM (active).

In the case of O=C1NC(=O)C(Nc2ccc(Cl)c(Cl)c2)C(=O)N1, the IC50 [23] is reported as 10.9 µM (active) and the IC50 [24] is reported as 8.82 µM (active).
